In patent publication US20260224714A1, “CYCLING LYSOSOMAL TARGETING ANTIBODY CONJUGATES” (Lycia Therapeutics, Inc., priority 2023, published 2026):

Experiments:
Assay type in all cases: cell-based
[1] = system: Alexa Fluor647 labelled human IgE; test: Uptake assay: internalization of Alexa Fluor 647 labelled IgE in ASGPR1/2 KO HepG2 cells (Example 6); conditions: equimolar conjugate and AF647 IgE, normalized to unconjugated parent protein
Procedure: (§1) The following experiments were performed with HepG2 hepatocellular carcinoma cells, grown in Eagle's Minimal Essential Media (EMEM) supplemented with 10% FBS and penicillin/streptomycin.
(§2) HepG2 cells (25,000) were plated in 96-well plates 48 hours before the experiment was performed. On the day of the experiment, indicated the conjugate was mixed with an equimolar stock of Alexa Fluor647 labelled human IgE (Enzo Life Sciences, BPD-DIA-HE 1) in fresh EMEM as a 600 nM stock. The precomplexed conjugate:IgE mixture was incubated at room temperature for 30 minutes. During the precomplexing step, media from HepG2 was removed, and 40 ul of EMEM with 1/100 Fc Receptor Blocking Solution (Biolegend Human TruStain FcX, 422302) was added. Cells incubated in the receptor blocking solution for 10 minutes while making serial dilutions (1:3) of conjugate:IgE stock solution in EMEM. 40 ul of the conjugate:IgE mixture in EMEM was then added to cells (six dilutions, with final concentrations ranging from 300 nM to 1.23 nM) for 2 hours before washing with DPBS and detaching with 0.25% Trypsin/EDTA. Cells were pelleted in 96-well conical bottom plates, washed once with FACS Buffer with BSA (Rockland Immunochemicals), and resuspended in FACS Buffer with BSA. Uptake of fluorescently labelled IgE was measured by analyzing median cellular AF647 intensity by flow cytometry.
(§3) Cells were incubated with equimolar ratio of conjugate and AF647 IgE at indicated concentrations, with data normalized to unconjugated parent protein (Oma S35HWY57H-LC).

human IgE = test: Degradation of initial and subsequent dose of target in HepG2 cells (Example 12, Table 30); conditions: normalized to unconjugated; for Normalized Fluorescence Post Wash Median Green: after wash, probe-conjugated IgE added for 4 hours, subsequent dose of target; for Normalized Fluorescence Precomplex Median Deep Red: precomplexed equimolar conjugate:IgE (cathepsin-cleavable quenched fluorescent probe) added for 2 hours, initial dose of target
Procedure: as §1
HepG2 cells (25,000) were plated in 96-well plates 48 hours before performing the experiment. On the day of the experiment, indicated conjugate was diluted in fresh EMEM as a 2× stock, and mixed with an equimolar stock of human IgE (Enzo Life Sciences, BPD-DIA-HE 1) conjugated to a cathepsin-cleavable quenched fluorescent probe. The precomplexed conjugate:IgE mixture was incubated at 37 degrees Celsius for 30 minutes. Media from HepG2 was removed, and conjugate:IgE mixture in EMEM was added to cells for 2 hours. Cells were then placed on ice to prevent trafficking/recycling during wash steps, and washed once with DPBS, once with sodium acetate buffer (20 mM, 150 mM NaCl, pH 5.2), once with Earle's Balanced Salt Solution (EBSS) adjusted to pH 2.5, and once again with DPBS, to remove conjugate from media and cell surface. Afterwards, 100 ul of prewarmed (to 37 degrees Celsius) EMEM with cathepsin-cleavable quenched fluorescent probe-conjugated IgE was added to cells for 4 hours before washing with DPBS and detaching with 0.25% Trypsin/EDTA. Cells were pelleted in 96-well conical bottom plates, washed once with FACS Buffer with BSA (Rockland Immunochemicals), resuspended FACS Buffer with BSA and median 488 and 647 intensity was analyzed by flow cytometry. Delivery of labelled IgE to the lysosome and subsequent cleavage of initial precomplexed IgE was measured by analyzing median cellular 647 intensity, while cleavage of the post wash addition of IgE, which should only be degraded by recycling conjugates which released the first round of precomplexed IgE, was analyzed by median cellular 488 intensity. HepG2 cells were treated with human IgE (Enzo Life Sciences, BPD-DIA-HE1) conjugated to a cathepsin-cleavable quenched deep red (647) fluorescent probe precomplexed to conjugate fortwo hours, then washed, and fresh media with IgE conjugated to a green (488) cathepsin-cleavable fluorescent probe was then added without conjugate. […] Fluorescence values were measured by FACS and normalized to unconjugated parent protein. Reported values are the average of the values of two replicate wells.

recombinant IgE = test: Degradation of super-stoichiometric levels of target in HepG2 cells (Example 13, Table 31); conditions: 1 nM conjugate and 25 nM IgE for three days, (A-B)/C IgE depleted relative to conjugate, average of two replicate wells
Procedure: as §1
For evaluation of compounds in a high throughput format, 25,000 HepG2 cells were plated in a 96-well plate. The following day, 50 ul of 1 nM conjugate and 25 nM recombinant IgE in EMEM were added to the cells. 50 ul of the initial stock of conjugate:IgE was saved to quantify for an initial time point. Three days later, the media was collected from cells, and both initial and 72 hour time points were quantified for IgE concentration using the MSD assay.
HepG2 cells were incubated in media containing 1 nM conjugate and 25 nM IgE for three days. Concentrations of IgE at beginning and end of experiment were quantified by ELISA-based assay. Molar equivalents of IgE depleted relative to conjugate added are shown, calculated as (A-B)/C, where A is the initial concentration of IgE, B is the concentration of IgE at day three, and C is the concentration of conjugate. Reported values are the average of the values of two replicate wells.

[2] = system: Alexa Fluor647 labelled human IgE; test: Uptake assay: internalization of Alexa Fluor 647 labelled IgE in wild type HepG2 cells (Example 6); conditions: equimolar conjugate and AF647 IgE, 2 hours, median cellular AF647 intensity by flow cytometry, normalized to unconjugated parent protein
Procedure: as §1, §2, §3

[3] = system: LysoLight-labelled human IgE; test: Lysosomal degradation of LysoLight-labelled IgE in HepG2 cells, live cell imaging (Example 7); conditions: equimolar conjugate:LysoLight IgE, area under the curve of deep red fluorescence over three days, normalized to unconjugated parent protein
Procedure: as §1
HepG2 cells (15,000) were plated in 96-well plates 72 hours before performing the experiment. On the day of the experiment, indicated the conjugate was diluted in fresh EMEM and mixed with an equimolar stock of LysoLight-labelled human IgE (Enzo Life Sciences, BPD-DIA-HE1), at 200 nM of each compound. The precomplexed conjugate:IgE mixture was incubated at room temperature for 30 minutes. During the precomplexing step, media from HepG2 was removed, and 40 ul of EMEM with 1/100 Fc Receptor Blocking Solution (Biolegend Human TruStain FcX, 422302) was added. Cells incubated in the receptor blocking solution for 10 minutes while making serial dilutions (1:3) of conjugate:IgE stock solution in EMEM. 40 ul of the conjugate:IgE mixture in EMEM was then added to cells (five dilutions, with final concentrations ranging from 100 nM to 1.23 nM). Cells were placed in an IncuCyte Live-Cell Analysis System (Sartorius) for long term live cell imaging analysis (10× magnification, 3 images per well). One hour after addition of compound, image acquisition to measure red fluorescence from the LysoLight probe was started, with further Images collected every hour for 72 hours. Fluorescence of the LysoLight probe only occurs when cleaved by lysosomal cathepsin proteases, confirming lysosomal delivery and degradation of target. After 72 hours, mean red fluorescence was measured for each time point, and the area under the curve of fluorescence overtime was used to measure total degradation over the 3-day time period.

HepG2 cells = test: Externalization of conjugates from a cell following internalization (cycling), high-throughput format (Example 11); conditions: 50 nM conjugate 1 hour, stringent washes, Alexa Fluor 647-labelled a-human IgG 1 hour, FACS, normalized to unconjugated parent protein, average of two replicate wells
Procedure: as §1
The method was also adapted to a high-throughput format. In this assay, 25,000 HepG2 cells were plated in 96-well plates 48 hours before performing the experiment. The day of the experiment, cells were incubated with conjugate at indicated concentrations for 1 hour. Cells were then placed on ice to prevent trafficking/recycling during wash steps, and washed once with DPBS, once with sodium acetate buffer (20 mM, 150 mM NaCl, pH 5.2), once with Earle's Balanced Salt Solution (EBSS) adjusted to pH 2.5, and once again with DPBS, to remove conjugate from media and cell surface. Afterwards, 100 ul of prewarmed (to 37° C.) EMEM with 1 μg/ml of human a-IgG antibody conjugated to Alexa Fluor647 fluorophores was added to cells for 1 hour before washing with DPBS and detaching with 0.25% Trypsin/EDTA. Cells were pelleted in 96-well conical bottom plates, washed once with FACS Buffer with BSA (Rockland Immunochemicals), resuspended FACS Buffer with BSA and median AF647 intensity was analyzed by flow cytometry. The amount of conjugate capable of cycling to the cell surface (being externalized from the cell) and binding to the Alexa Fluor647 labelled α-IgG was measured by analyzing median cellular 647 fluorescence intensity by flow cytometry. […]. Reported values are the average of the values of two replicate wells.

CC(=O)N[C@H]1[C@H](OCCCCC(=O)NCCCNC(=O)CCOCC(COCCC(=O)NCCCNC(=O)CCCCO[C@@H]2O[C@H](CO)[C@H](O)[C@H](O)[C@H]2NC(C)=O)(COCCC(=O)NCCCNC(=O)CCCCO[C@@H]2O[C@H](CO)[C@H](O)[C@H](O)[C@H]2NC(C)=O)NC(=O)CCCCCCCCCCC(=O)NCCN2C(=O)C=CC2=O)O[C@H](CO)[C@H](O)[C@@H]1O [Compound 2401-C]
Normalized Fluorescence 100 nM ASGPR KO [1]: 1.2 | Normalized Fluorescence Post Wash Median Green (human IgE): 1.2 | Normalized Fluorescence Precomplex Median Deep Red (human IgE): 1.7 | Average Degradation (Molar equivalents) (recombinant IgE): −1.0 Molar equivalents | Normalized Fluorescence 3.7 nM WT [2]: 10.3 | Normalized Fluorescence 100 nM WT [2]: 44.7 | Normalized Fluorescence 3.7 nM [3]: 1.1 | Normalized Fluorescence 100 nM [3]: 1.8 | Normalized Fluorescence (HepG2 cells): 3.2

CN1CCN(C[C@H]2OC[C@H](Nc3nc(OCCOCCOCCNC(=O)NCCCC(CCCNC(=O)NCCOCCOCCOc4cc(C(F)(F)F)nc(N[C@H]5CO[C@H](CN6CCN(C)CC6)[C@H](O)[C@@H]5O)n4)(CCCNC(=O)NCCOCCOCCOc4cc(C(F)(F)F)nc(N[C@H]5CO[C@H](CN6CCN(C)CC6)[C@H](O)[C@@H]5O)n4)NC(=O)CCOCCOCCOCCNS(=O)(=O)c4ccc(N5C(=O)C=CC5=O)cc4)cc(C(F)(F)F)n3)[C@@H](O)[C@H]2O)CC1 [Compound 2312]
Normalized Fluorescence 100 nM ASGPR KO [1]: 1.0 | Normalized Fluorescence Post Wash Median Green (human IgE): 3.0 | Normalized Fluorescence Precomplex Median Deep Red (human IgE): 3.5 | Average Degradation (Molar equivalents) (recombinant IgE): 4.1 Molar equivalents | Normalized Fluorescence 3.7 nM WT [2]: 64.9 | Normalized Fluorescence 100 nM WT [2]: 242.9 | Normalized Fluorescence 3.7 nM [3]: 11.1 | Normalized Fluorescence 100 nM [3]: 4.2 | Normalized Fluorescence (HepG2 cells): 44.5

CC(=O)N[C@@H]1[C@@H](O)[C@@H](O)[C@@H](CO)O[C@@H]1CCCCCOCCOCCNC(=O)NCCCOCC(COCCCNC(=O)NCCOCCOCCCCC[C@@H]1O[C@@H](CO)[C@@H](O)[C@@H](O)[C@@H]1NC(C)=O)(COCCCNC(=O)NCCOCCOCCCCC[C@H]1O[C@H](CO)[C@H](O)[C@H](O)[C@H]1NC(C)=O)NC(=O)CCOCCOCCOCCNC(=O)c1ccc(N2C(=O)C=CC2=O)cc1 (stereo partly drawn) [Compound 2317]
Normalized Fluorescence 100 nM ASGPR KO [1]: 1.1 | Normalized Fluorescence Post Wash Median Green (human IgE): 3.7 | Normalized Fluorescence Precomplex Median Deep Red (human IgE): 3.6 | Average Degradation (Molar equivalents) (recombinant IgE): 4.0 Molar equivalents | Normalized Fluorescence 3.7 nM WT [2]: 76.2 | Normalized Fluorescence 100 nM WT [2]: 255.2 | Normalized Fluorescence 3.7 nM [3]: 15.2 | Normalized Fluorescence 100 nM [3]: 4.2 | Normalized Fluorescence (HepG2 cells): 48.8

O=C(CCOCCOCCOCCNS(=O)(=O)c1ccc(N2C(=O)C=CC2=O)cc1)NC(CCCNC(=O)NCCOCCOCCOCc1cn([C@H]2[C@H]3OC[C@](CO)(O3)[C@H](O)[C@@H]2O)nn1)(CCCNC(=O)NCCOCCOCCOCc1cn([C@H]2[C@H]3OC[C@](CO)(O3)[C@H](O)[C@@H]2O)nn1)CCCNC(=O)NCCOCCOCCOCc1cn([C@H]2[C@H]3OC[C@](CO)(O3)[C@H](O)[C@@H]2O)nn1 [Compound 2328]
Normalized Fluorescence 100 nM ASGPR KO [1]: 1.1 | Normalized Fluorescence Post Wash Median Green (human IgE): 1.8 | Normalized Fluorescence Precomplex Median Deep Red (human IgE): 2.4 | Average Degradation (Molar equivalents) (recombinant IgE): −0.3 Molar equivalents | Normalized Fluorescence 3.7 nM WT [2]: 29.7 | Normalized Fluorescence 100 nM WT [2]: 146.5 | Normalized Fluorescence 3.7 nM [3]: 4.4 | Normalized Fluorescence 100 nM [3]: 2.5 | Normalized Fluorescence (HepG2 cells): 15.1

CCC[C@H]1O[C@H](COC)[C@H](O)[C@H](O)[C@H]1Nc1nccc(OCCOCCOCCNC(=O)NCCCC(CCCNC(=O)NCCOCCOCCOc2ccnc(N[C@@H]3[C@@H](O)[C@@H](O)[C@@H](COC)O[C@@H]3CCC)n2)(CCCNC(=O)NCCOCCOCCOc2ccnc(N[C@@H]3[C@@H](O)[C@@H](O)[C@@H](COC)O[C@@H]3CCC)n2)NC(=O)CCOCCOCCOCCNS(=O)(=O)c2ccc(N3C(=O)C=CC3=O)cc2)n1 [Compound 2326]
Normalized Fluorescence 100 nM ASGPR KO [1]: 1.1 | Normalized Fluorescence Post Wash Median Green (human IgE): 4.1 | Normalized Fluorescence Precomplex Median Deep Red (human IgE): 4.1 | Average Degradation (Molar equivalents) (recombinant IgE): 9.0 Molar equivalents | Normalized Fluorescence 3.7 nM WT [2]: 89.7 | Normalized Fluorescence 100 nM WT [2]: 287.9 | Normalized Fluorescence 3.7 nM [3]: 17.2 | Normalized Fluorescence 100 nM [3]: 3.7 | Normalized Fluorescence (HepG2 cells): 57.7
